Entries after “also recorded” stand apart in the source; their conditions may differ. Where a SMILES comes first, the peptide text is derived from it.
Tests used:
IDE [1] = molecular target: T1, IDE (Rattus norvegicus, UniProt P35559); experiment: Specificity/inhibition of T40-degrading activity of IDE; assay type: biochemical; set-up: purchased Merck, UK; settings: 16 µM T40, 22 nM IDE, 37°C, 90 min
T1 sequence (P35559 1-1019): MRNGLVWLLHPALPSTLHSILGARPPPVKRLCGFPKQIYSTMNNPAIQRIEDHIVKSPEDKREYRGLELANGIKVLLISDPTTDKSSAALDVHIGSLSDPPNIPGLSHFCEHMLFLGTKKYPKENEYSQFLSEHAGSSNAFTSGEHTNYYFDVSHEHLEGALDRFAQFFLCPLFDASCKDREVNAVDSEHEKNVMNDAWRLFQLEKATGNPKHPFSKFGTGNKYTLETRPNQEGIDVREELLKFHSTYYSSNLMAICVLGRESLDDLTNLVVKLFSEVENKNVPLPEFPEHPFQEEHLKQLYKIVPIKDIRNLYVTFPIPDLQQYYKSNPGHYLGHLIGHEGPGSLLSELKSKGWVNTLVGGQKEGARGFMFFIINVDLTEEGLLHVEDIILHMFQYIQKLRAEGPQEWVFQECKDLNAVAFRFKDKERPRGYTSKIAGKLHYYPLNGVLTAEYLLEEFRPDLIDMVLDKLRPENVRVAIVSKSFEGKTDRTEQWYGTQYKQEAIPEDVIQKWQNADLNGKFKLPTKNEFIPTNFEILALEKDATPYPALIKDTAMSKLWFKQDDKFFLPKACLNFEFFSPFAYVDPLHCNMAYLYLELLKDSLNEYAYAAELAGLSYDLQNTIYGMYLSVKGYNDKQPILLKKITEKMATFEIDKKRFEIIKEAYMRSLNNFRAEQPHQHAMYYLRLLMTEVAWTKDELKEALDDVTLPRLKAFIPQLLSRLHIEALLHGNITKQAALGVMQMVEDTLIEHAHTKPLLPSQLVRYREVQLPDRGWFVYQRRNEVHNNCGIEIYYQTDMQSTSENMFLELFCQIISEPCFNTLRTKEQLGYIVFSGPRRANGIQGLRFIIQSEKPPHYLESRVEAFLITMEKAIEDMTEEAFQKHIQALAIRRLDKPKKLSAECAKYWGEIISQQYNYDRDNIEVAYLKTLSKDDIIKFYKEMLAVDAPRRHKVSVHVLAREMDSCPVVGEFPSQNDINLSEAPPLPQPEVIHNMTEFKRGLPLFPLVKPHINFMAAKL
Description: (§1) 16 µM T40 was incubated with or without 22 nM IDE (37°C) and the reaction stopped as indicated. (B) Specificity of IDE activity. […] For (A) and (B), digestion products were resolved (10% Tris-Tricine SDS-PAGE), electro-blotted onto nitrocellulose and probed with KD69 (specific for the T40). Marker proteins are indicated. Arrows indicate the positions of T40 monomers and dimers. (C) 60 µM T40 was incubated with or without 50 nM IDE (37°C) and products separated by RP-HPLC (peaks annotated a–h). (D) Positions of IDE initial cleavages (arrows) within T40 (2 min digestion). (E) Identity of the major peptides (italics) and of CSR species in peaks a–h, analyzed by MS.
(§2) IDE and NEP (Merck, UK) digestions were at 37°C in 100 mM KHPO4/KH2PO4 buffer pH 7.5 (buffer A) or 100 mM Tris-HCl pH 7.4, 1% Triton X-100 (buffer B) respectively. 16 µM T40 was incubated with 22 nM IDE or 309 nM NEP, and 16 or 14.8 µM AChE586-599 oligomers with 16.3 nM IDE or 285 nM NEP. Reactions were stopped by boiling in a Laemmli's dissociation buffer with 100 mM DTT and subjected to SDS-PAGE (10% Tris-Tricine for T40 and 16.5% Tris-Tricine for AChE586-599 oligomers). […]

NEP = NEP digestion, products by RP-HPLC and MS; assay type: in vitro ADME; settings: 37°C; for effect of NEP exposure on peptide level: 60 µM peptide, 1.2 µM NEP, 4 hours, 100 mM Tris-HCl pH 7.4, 1% Triton X-100, RP-HPLC
Description: Figure 4 NEP preferentially degrades monomeric forms of AChE586-599. (A) 60 µM of either substance P or T40 were incubated with or without 1.2 µM NEP (37°C, 4 hours) and the digestion mixture subjected to RP-HPLC. (B) Positions of NEP initial cleavages (arrows) within AChE586-599. (C) Cleavage map after complete NEP digestion of AChE586-599. 40 µM AChE586-599 was incubated with 772 nM NEP (30 min (B) or 4 hours (C), 37°C) and RP-HPLC peaks analyzed by MS. (D) NEP degrades AChE586-599 oligomers. […] Digestion products were analyzed as described in Figure 3C. Arrows indicate two digested AChE586-599 oligomers. (E) T40/IDE products are substrates for NEP. 60 µM T40 was incubated with 50 nM IDE (37°C, 30 min) and products separated by RP-HPLC. Peaks e–f (see Figure. 2C) were lyophilized, incubated with 772 nM NEP (37°C, 2 hours) and subjected to RP-HPLC.
60 µM substance P or T40 were incubated with or without 1.2 µM NEP (4 hours), stopped (0.5% trifluoroacetic acid) and subjected to RP-HPLC.

IDE [2] = molecular target: T1, IDE; experiment: IDE digestion, products by RP-HPLC and MS; settings: 37°C
Description: as §1
(A) Positions of IDE initial cleavages (arrows) within AChE586-599. […] 63 µM AChE586-599 was incubated with or without 45 nM IDE (A) or 273 nM IDE (B)(37°C, 30 min) and RP-HPLC peaks analyzed by MS. […] AChE586-599 oligomers (16 µM) cross-linked by photo-induced cross-linking were incubated with or without 16.3 nM IDE (37°C). Digestion products were resolved (16.5% Tris-Tricine SDS-PAGE), electro-blotted onto nitrocellulose and probed with Mab 105A (specific for AChE586-599 in β-sheet conformation). Marker proteins are indicated.
To identify degradation products, 60 µM T40 was incubated with 50 nM IDE; 63 µM AChE586-599 with 45 nM or 273 nM IDE; and 40 µM AChE586-599 with 772 nM NEP and separated by reverse phase-HPLC (RP-HPLC). Peaks were collected and identities determined on a Q-TOF Micro mass spectrometer (Micromass, UK) with MassLynx 4.0 and MaxEnt 3 software. Lyophilized HPLC separated T40/IDE products were used for surface tension and seeding experiments.
Reaction products were resolved by RP-HPLC with a Sephasil C4 column (5 µm, 4.6×250 mm; Amersham Biosciences, UK) using a 5–95% linear gradient of acetonitrile in 0.1% trifluoroacetic acid over 25 min (flow rate 1 ml/min). The eluent was monitored by UV absorption at 280 nm.

NEP (neprilysin), 1.2 µM = experiment: NEP in 100 mM Tris-HCl pH 7.4, 1% Triton X-100 (buffer B); settings: 37°C, up to 4 hours
IDE (insulysin), 50 nM = experiment: IDE in 100 mM KHPO4/KH2PO4 buffer pH 7.5 (buffer A); settings: 37°C, up to 2 hours
IDE [3] = molecular target: T1, IDE; experiment: IDE digestion of T40, SDS-PAGE and western blot with KD69; settings: 16 µM T40, 22 nM IDE, 37°C
Description: as §1, §2

IDE (insulysin), 45 nM = experiment: IDE in 100 mM KHPO4/KH2PO4 buffer pH 7.5 (buffer A); settings: 37°C, up to 30 min
NEP (neprilysin), 772 nM = experiment: NEP in 100 mM Tris-HCl pH 7.4, 1% Triton X-100 (buffer B); settings: 37°C, up to 4 hours

insulin
concentration giving complete inhibition of IDE degradation of T40 (IDE [1]; western blot, equimolar to T40): 16 µM | inhibition of IDE degradation of T40 (IDE [1]; insulin or IgG 2–16 µM, 1,10-phenanthroline 1 and 10 mM): dose dependent inhibition

CSCC[C@H](NC(=O)[C@H](Cc1ccc(O)cc1)NC(=O)[C@H](CO)NC(=O)[C@H](CO)NC(=O)[C@H](Cc1c[nH]c2ccccc12)NC(=O)[C@H](CCCNC(=N)N)NC(=O)[C@H](Cc1c[nH]cn1)NC(=O)[C@H](Cc1ccccc1)NC(=O)[C@H](CCC(=O)O)NC(=O)[C@H](C)N)C(=O)N[C@H](C(=O)N[C@@H](Cc1c[nH]cn1)C(=O)N[C@@H](Cc1c[nH]c2ccccc12)C(=O)N[C@@H](CCCCN)C(=O)O)C(C)C [AChE586-599] (H-AEFHRWSSYMVHWK-OH)
time for complete digestion of AChE586-599 by NEP (NEP; 40 µM AChE586-599, 772 nM NEP, Tris-HCl pH 7.4, 1% Triton X-100, RP-HPLC/MS): ≤ 4 h | degradation of AChE586-599 by IDE (IDE [2]; 63 µM AChE586-599, 45 nM IDE, 30 min, buffer pH 7.5, RP-HPLC/MS): degraded | extent of AChE586-599 digestion by IDE (IDE [2]; 63 µM AChE586-599, 273 nM IDE, 30 min, RP-HPLC/MS): complete IDE digestion

substance P [reference compound]
effect of NEP exposure on peptide level (NEP): degradation

DTLDEAERQWKAEFHRWSSYMVHWKNQFDHYSKQDRCSDL
not cleaved (NEP (neprilysin), 1.2 µM): levels remained unchanged after exposure to NEP (4 hours) | cleaved bond (IDE (insulysin), 50 nM): Phe14-His15, first_seen, 2 min; also recorded: Ser19-Tyr20, first_seen, 2 min; also recorded: Trp24-Lys25, first_seen, 2 min

CSCC[C@H](NC(=O)[C@H](Cc1ccc(O)cc1)NC(=O)[C@H](CO)NC(=O)[C@H](CO)NC(=O)[C@H](Cc1c[nH]c2ccccc12)NC(=O)[C@H](CCCNC(=N)N)NC(=O)[C@H](Cc1c[nH]cn1)NC(=O)[C@H](Cc1ccccc1)NC(=O)[C@H](CCC(=O)O)NC(=O)[C@H](C)NC(=O)[C@H](CCCCN)NC(=O)[C@H](Cc1c[nH]c2ccccc12)NC(=O)[C@H](CCC(N)=O)NC(=O)[C@H](CCCNC(=N)N)NC(=O)[C@H](CCC(=O)O)NC(=O)[C@H](C)NC(=O)[C@H](CCC(=O)O)NC(=O)[C@H](CC(=O)O)NC(=O)[C@H](CC(C)C)NC(=O)[C@@H](NC(=O)[C@@H](N)CC(=O)O)[C@@H](C)O)C(=O)N[C@H](C(=O)N[C@@H](Cc1c[nH]cn1)C(=O)N[C@@H](Cc1c[nH]c2ccccc12)C(=O)N[C@@H](CCCCN)C(=O)N[C@@H](CC(N)=O)C(=O)N[C@@H](CCC(N)=O)C(=O)N[C@@H](Cc1ccccc1)C(=O)N[C@@H](CC(=O)O)C(=O)N[C@@H](Cc1c[nH]cn1)C(=O)N[C@@H](Cc1ccc(O)cc1)C(=O)N[C@@H](CO)C(=O)N[C@@H](CCCCN)C(=O)N[C@@H](CCC(N)=O)C(=O)N[C@@H](CC(=O)O)C(=O)N[C@@H](CCCNC(=N)N)C(=O)N[C@@H](CS)C(=O)N[C@@H](CO)C(=O)N[C@@H](CC(=O)O)C(=O)N[C@@H](CC(C)C)C(=O)O)C(C)C [T40] (H-DTLDEAERQWKAEFHRWSSYMVHWKNQFDHYSKQDRCSDL-OH)
effect of NEP exposure on peptide level (NEP): remained unchanged | extent of T40 digestion by IDE at 30 min (IDE [2]; 60 µM T40, 50 nM IDE, buffer pH 7.5, RP-HPLC C4, UV 280 nm): near complete digestion | incubation time for complete disappearance of monomeric T40 with IDE (IDE [3]; 100 mM KHPO4/KH2PO4 buffer pH 7.5, western blot KD69): ≤ 80 min | fate of dimeric T40 with IDE (IDE [3]; buffer pH 7.5, up to 80 min, western blot KD69): remained undigested

AEFHRWSSYMVHWK
cleaved bond (IDE (insulysin), 45 nM): Ser8-Tyr9, first_seen, 30 min; also recorded: His12-Trp13, first_seen, 30 min | cleaved bond (NEP (neprilysin), 772 nM): Ser8-Tyr9, first_seen, 30 min; also recorded: His12-Trp13, first_seen, 30 min; also recorded: H4-R5, first_seen, 30 min

Reference: publication PMC1920558 (PLoS ONE, 2007)
